From US20230107216A1, “PANTETHEINE DERIVATIVES AND USES THEREOF” (Comet Therapeutics, Inc., priority 2018, published 2023)
Where two headings read alike, the source gives them in different places.

Tests used:
[1] = test system: Propionic Acidemia (PA) primary fibroblasts Tsi 6337; test: Mitochondrial respiration, XFe96 Extracellular Flux Analyzer (OCR/ECAR), PA fibroblasts Tsi 6337; format: cell-based; settings: Homo sapiens, Fibroblast, read-out: Increase in Maximal Respiratory Capacity AUC
Description: The effect of the compounds of the present disclosure on mitochondrial respiration was measured with a XFe96 Extracellular Flux Analyzer (Seahorse Bioscience, Agilent Technologies) and Oxygen consumption Rate (OCR) and Extracellular acidification rate (ECAR) determined.
Cell culture and treatments. Primary adherent fibroblasts were cultured in minimum essential medium (MEM) (Gibco, 25030081) supplemented with 2 mM L-Glutamine (Gibco, 25030081), 15% fetal bovine serum (FBS) (Gibco, 26400044) and 1% penicillin/streptomycin (Gibco, 5140122) at 37° C. and 5% CO2. Cells were collected for either passaging or experiment at ˜70-80% confluence. Cells were obtained by trypsinization and seeded at 20000 cells/well in cell culture microplates (Seahorse Bioscience, 101085-004) and allowed to adhere for 16 hours in culture media.
By profiling different primary cells and/or optimizing their culture media or environmental components one can select cell lines and/or conditions that are appropriate for the biological or disease model. In the present example, 24 hours prior to OCR and ECAR profiling, media was changed to Dulbecco's Modified Eagle Medium (DMEM, Agilent Seahorse 103575-100) with the appropriate supplements for the different primary cells (10 mM glucose, 2 mM L-glutamine, 1 mM pyruvate, 10% FBS; 1 mM glucose, 2 mM L-glutamine, 1 mM pyruvate, 10% FBS; 10 mM glucose, 10% FBS; 5 mM glucose 10% FBS; 1 mM glucose 10% FBS). Cells used in this example were: Propionic Acidemia (PA) (GM00371, GM03590 Coriell Institute for Medical Research, Tsi 6337, Tsi 4626, Tsi 3618 Trans-Hit Bio), Methylmalonic Acidemia (MMA) (GM01673, Coriell Institute for Medical Research, Tsi 5224 Trans-Hit Bio), Branched chain ketoacid dehydrogenase kinase (BCKDK) (GM00612, GM00649 Coriell Institute for Medical Research), Subnormal activation of pyruvate dehydrogenase complex (PDH) (GM01503 Coriell Institute for Medical Research), Very long-chain acyl-CoA dehydrogenase (VLCAD) (GM17475), Leigh Syndrome (LS) (GM03672, GM13411 Coriell Institute for Medical Research), Pyruvate Carboxylase Deficiency (PC) (GM00444 Coriell Institute for Medical Research), Glutaric Acidemia-I (GA) (GM10653), Friedreich's Ataxia (FXN) (GM04078 Coriell Institute for Medical Research, Huntington's disease (HD) (GM21756 Coriell Institute for Medical Research), Ornithine Transcarbamylase Deficiency (OTC) (GM12756 Coriell Institute for Medical Research), Kearns-Sayre Syndrome (KSS) (GM06225 Coriell Institute for Medical Research).
One hour before the assay, the cells were washed with freshly prepared unbuffered serum free-Seahorse XF Assay medium (Seahorse Bioscience, North America, USA, 103575-100) with the same supplements as for the previous 24 hour incubation.
After baseline measurements of OCR, cells were challenged with compounds of the present disclosure at different concentrations (10 to 50 μM) or vehicle (DMSO, 0.1%) and a post-compound baseline was recorded. OCR was measured after sequentially adding to each well 1 μg/ml oligomycin (inhibitor of ATP synthase Sigma-Aldrich, 753531), then maximal OCR was determined with carbonyl cyanide 4-(trifluoromethoxy) phenylhydrazone (FCCP, Sigma-Aldrich, C2920), (uncoupler of oxidative phosphorylation) and 0.5 μM of rotenone (Sigma-Aldrich, R8875) plus antimycin A (Sigma-Aldrich, A8674) (inhibitors of mitochondrial complex I and III) for determination of rotenone-antimycin insensitive respiration together with Hoechst for nuclear staining in situ when normalized to cell counts. After the analysis and nuclear staining, the XFp microplate was transferred to the Cytation 5, and the nuclear images were captured, the individual nuclei were identified and counted by BioTek Gen5 software. Data were expressed as pmol of O2 per minute and normalized by nuclear staining and baselined to pre-compound addition.
Assay conditions were as stated below.
Assay specifics on assay conditions are indicated below when readouts were normalized to cell counts. […]

HepG2 cells = test: Mitochondrial membrane potential (MITO-ID MP detection Kit); format: cell-based; settings: Homo sapiens, 168 h, 7 days, read-out: % increase in Mitochondrial Membrane Potential
Description: HepG2 cells (ATCC, HB-8065) were cultured (5% CO2 at 37° C.) and plated in Poly-D-Lysine 384-Well plate (Corning, 356663) at a density of 160000 cells/mL in 50 μL/well. Culture and assay media consisted of DMEM (Gibco, 11995-065) supplemented with 1% Penicillin-Streptomycin and 10% FBS (Hyclone, SV30087.03).
MITO-ID® MP detection Kit (ENZ-51018) was used and manufacturer instructions followed. Cells were allowed to settle for 30 min at room temperature and further incubated overnight (37° C. and 5% CO2) for adherence. Next day, test compounds (50-10 μM) and vehicle DMSO (0.2%) were added at the recommended volumes to the 384-well plate for 7 days without media change using a Tecan compound dispenser. All the solutions and wash buffers were prepared and dispensed according to manufacturer's volumes for a 384-well plate format.

[2] = test system: monocyte-derived M1 macrophages; test: M1 differentiation assay (macrophage TNFα, IL6, IL10 ELISA, FACS); format: cell-based, human; settings: Homo sapiens, Macrophage
Summary of the method: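 CD14+ human blood monocytes (100,000) differentiated 6 days with 10 ng/ml GM-CSF plus compound at 10 or 50 μM, refreshed days 2 and 4. Matured 24 h with GM-CSF, IFNγ, LPS plus compound. Supernatant TNFα, IL6, IL10 by ELISA; FACS M1 phenotype CD86+CD68+CD163−.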

[3] = test system: primary culture of rat embryo mesencephalic cells (microglia, astrocytes and neurons) exposed to LPS; test: Neuroprotective effect on damage induced by LPS on culture of mesencephalic neurons (NO, TNF-α, IL-1β, TH positive neurons); format: cell-based; settings: Rattus norvegicus, Neuron, 120 h, 50 uM, after 5 days of LPS exposure; list at threshold 15%; read-out: % reversion of TH positive neurons
Description: Drug preparation. […] The stock solutions will be prepared 1000× the concentration in 100% DMSO. The final concentration of the vehicle (DMSO) is set at 0.1%.
Test animals. Pregnant Wistar rats (Janvier; France) are used for the study. They are group-housed and maintained in a room with controlled temperature (21-22° C.) and a reversed light-dark cycle (12h/12h; lights on: 17:30-05:30; lights off: 05:30-17:30) with food and water available ad libitum.
The protocol is performed in 3 independent cultures. For each culture, each condition is performed in sextuplicate.
Female rat of 15 days gestation is killed by cervical dislocation. Fetuses are removed from the uterus and their brains are harvested and placed in ice-cold medium (Leibovitz's L15 medium, Gibco). Only ventral mesencephalic flexure is used for the cell preparations. The midbrain is dissociated by trypsinization. The reaction is stopped, and the suspension is triturated and centrifuged. The pellet of dissociated cells is resuspended in culture medium consisted of DMEM-F12 (Gibco), containing 10% FBS (ATCC), 10% Horse serum (Gibco) and 2 mM L-glutamine (Gibco). Viable cells are counted and seeded on 96-well plates, precoated with poly-L-lysine. Cells are maintained in a humidified incubator at 37° C. in 5% CO2-95% air atmosphere. Half of the medium is changed on day 2 and day 5.
Treatment. On day 7, culture media are removed and replaced by new medium consisting of DMEM-F12 (Gibco) supplemented with 2% FBS (ATCC), 2% Horse serum (Gibco) and 2 mM L-glutamine (Gibco) and containing vehicle or test substances. After 1-hour exposure, LPS at 10 ng/ml is added and exposure further continued for 24 hours or 5 days period.
Inflammatory response measurement and neuronal death evaluation. NO production is measured in the media 24h and 5 days after LPS exposure using the Griess reagent kit (Molecular Probes). The Griess reagent Assay is a colorimetric reaction assay which measures the conversion of a sulfanilic salt into an azo dye product by nitrite. Visible wavelength absorbance data is collected using a 96-well plate reader at 570 nm (Multiskan EX, Thermo Fisher, France). IL-1β and TNF-α release are measured in the media 24h after LPS exposure using the ELISA development kit (PeproTech). The ELISA plate, previously coated with anti-IL-1β or anti-TNF-αantibody at 1 μg/ml, is incubated 1h with PBS containing 1% of BSA (bovine serum albumin). After washing four times with PBS containing 0.05% of Tween-20, the plate is successively incubated 2h with supernatant, 2h with biotinylated antibody at 0.5 μg/ml in PBS containing 0.1% of BSA and 0.05% of Tween-20, 45 min with Avidin-HRP conjugated at 1/2000 and 30 min with color ABTS substrate (Sigma). Visible wavelength absorbance data is collected using a 96-well plate reader at 405 nm with wavelength correction set at 650 nm (Multiskan EX, Thermo Fisher, France).
Immunodetection of tyrosine hydroxylase positive neurons. On day 12 (5 days after LPS exposure), cultures are fixed 30 min at 4° C. with paraformaldehyde in PBS (4%, Sigma). Then, cells are successively permeabilized with 0.1% Triton X100 for 30 min, saturated with PBS containing 3% of BSA (bovine serum albumin) and are incubated 2h with anti-tyrosine hydroxylase antibody (Sigma, 1:10000; clone TH-2) at 1/10 000 in PBS containing 0.5% of BSA. Cells are washed three times with PBS containing 0.5% of BSA, and they are incubated 1h with goat anti mouse antibody coupled with AF488 (Invitrogen A11001) diluted at 1/1000 in PBS containing 0.5% of BSA. Finally, nuclei are stained with DAPI at 1/1000 in PBS containing 0.5% of BSA. After rinsing with PBS, the plate is visualized and examined with Cell Insight HCS (Thermo Scientific) to determine the number of tyrosine hydroxylase positive cells per well.
Statistical Analysis. The drug-induced effect on NO and cytokines is calculated by setting the response of the LPS-stimulated control as 100%. […]

[4] = PA Tsi 6337, assay condition A (10 mM glucose, 2 mM L-glutamine, 1 mM pyruvate, 10% FBS)

| Structure (SMILES) | activation at 10 µM [1, 4] | activation at 50 µM (HepG2 cells; 50 uM) | activation at 10 µM (HepG2 cells) | inhibition at 10 µM ([2]; 10 uM, read-out: % decrease in Macrophage IL-6 Secretion) | activation at 50 µM ([2]; 50 uM, read-out: % Increase in IL-10 Secretion) | inhibition at 50 µM [3] | activation at 10 µM ([1]; PA Tsi 6337, assay condition D (1 mM glucose, 10% FBS)) |
| --- | --- | --- | --- | --- | --- | --- | --- |
| C[C@@H](CC(=O)SCCNC(=O)CCNC(=O)[C@H](O)C(C)(C)CO)OC(=O)CCC(=O)O [Compound 1247, 4-{[(2S)-4-[(2-{3-[(2R)-2,4-dihydroxy-3,3-dimethylbutanamido]propanamido}ethyl)sulfanyl]-4-oxobutan-2-yl]oxy}-4-oxobutanoic acid] | ≥ 10% | > 20% | – | – | – | – | – |
| CC(C)(CO)[C@@H](O)C(=O)NCCC(=O)NCCSC(=O)C1CCC(=O)O1 (stereo partly drawn) [Compound 1229, S-2-{3-[(R)-2,4-dihydroxy-3,3-dimethylbutyrylamino]propionylamino} ethyl 5-oxo-3,4-dihydro-2H-furan-2-carbothioate] | ≥ 10% | – | > 20% | ≥ 30% | ≥ 30% | – | – |
| CC(C)(CO)[C@@H](O)C(=O)NCCC(=O)NCCS [Preparatory Ex 5] | – | – | – | – | – | ≥ 15% | – |
| COC(=O)CCC(=O)OCC(C)(C)[C@@H](O)C(=O)NCCC(=O)NCCSC(=O)CCC(=O)OC [Compound 1230] | ≥ 10% | – | > 30% | – | – | – | ≥ 10% |
